Measurements reported in patent US6579893B1, “Use of troglitazone and related compounds for the treatment of cancer” (Board of Regents, The University of Texas System, priority 1997, dated 2003).

Legend:
PPARα = biological target: T1, PPARα (Homo sapiens, UniProt Q07869); conditions: cited from earlier work
T1 sequence (Q07869 1-468): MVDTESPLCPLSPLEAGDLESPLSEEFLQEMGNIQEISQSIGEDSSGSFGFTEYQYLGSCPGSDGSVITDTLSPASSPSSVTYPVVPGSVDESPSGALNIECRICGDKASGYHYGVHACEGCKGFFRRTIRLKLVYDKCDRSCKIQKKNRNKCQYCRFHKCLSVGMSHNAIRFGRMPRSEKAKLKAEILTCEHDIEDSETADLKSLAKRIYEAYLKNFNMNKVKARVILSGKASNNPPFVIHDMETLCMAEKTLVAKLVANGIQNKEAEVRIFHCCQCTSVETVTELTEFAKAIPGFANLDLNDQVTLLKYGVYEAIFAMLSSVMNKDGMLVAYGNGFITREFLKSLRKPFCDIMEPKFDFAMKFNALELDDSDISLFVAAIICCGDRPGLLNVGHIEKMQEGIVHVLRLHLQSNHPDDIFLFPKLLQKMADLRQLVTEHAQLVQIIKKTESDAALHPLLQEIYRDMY

PPARγ [1] = conditions: cited from earlier work
porcine granulosa cells [2] = assay: Progesterone production by cultured porcine granulosa cells; assay type: cell-based; conditions: for suppression of progesterone production, dose-response: serum-free medium, varying concentrations, 24 h (FIG. 1)
Source text: FlG. 1. Dose-response of progesterone production suppression in porcine granulosa cells treated with Troglitazone and related thiazolidinedione compounds. […] . […] Progesterone concentrations were corrected for DNA content in treated cells and are presented as a percentage of basal corrected progesterone production.
FIG. 2. Time course of Troglitazone suppression of progesterone production by porcine granulosa cells. […] .
FIG. 4. Effects of 25-OH cholesterol on Troglitazone suppression of porcine granulosa cell progesterone production. […] .
Initial studies investigated the dose-response of Troglitazone and related compounds on progesterone production in cultures of porcine granulosa cells. Porcine granulosa cells were isolated from 1- to 5-mm follicles of ovaries from immature swine (60-70 kg) obtained from a local slaughterhouse (Urban et al. 1994). The cells were plated in Eagle's minimum essential medium and 3% fetal calf serum (FCS) at a concentration of 20-30 million cells 60-mm dish for 12-16 h to facilitate granulosa cell attachment to the plates. Monolayer cultures were maintained at 37° C. in 5% CO2 throughout the study. After granulosa cell attachment, medium containing the FCS was discarded and serum-free medium with varying concentrations of Troglitazone, pioglitazone and BRL 49653 was added for 24 h. One ml of medium was collected for measurement of progesterone by an assay previously described that uses the chromatographic separation of steroids to enhance specificity (Urban et al. 1994). […] . The time course for the suppression of progesterone was done in the same porcine granulosa cell culture system. […] . The suppression of progesterone production in porcine granulosa cells by Troglitazone could be due to effects of the drug on the supply of cholesterol to the mitochondria. Before investigating proteins in the pathway of cholesterol transport to the mitochondria, it was first tested whether Troglitazone would inhibit progesterone production when cells were co-treated with 25-OH cholesterol. This compound diffuses directly to the P-450 cholesterol side-chain cleavage enzyme (P-450scc) in the mitochondria and acts as a substrate for progesterone production (Veldhuis and Furlanetto, 1985). […] .

PPARγ [3] = assay: EMSA of porcine granulosa cell nuclear extract with consensus PPRE (DR-1) oligonucleotide; assay type: cell-based; conditions: 15 μg nuclear extract protein, EMSA (FIG. 6)
Source text: The nuclear extract was mixed with radioactively-labeled consensus PPRE as described in FIG. 6.

[4] = test system: polycystic ovary syndrome; conditions: women with PCO, 400 mg every day, cited from earlier work
porcine granulosa cells [5] = assay: DNA content and total protein of treated porcine granulosa cells; assay type: cell-based
HGL5 cells [6] = assay: Cell viability of HGL5 cells (MTT to formazan); conditions: HGL5, 4 days, MTT (FIG. 9)
Procedure: Cell viability was assessed by the conversion of MTT to formazan as previously described. Data are the mean ±SEM from 2 studies done in triplicate.
A similar assay was used as described above porcine granulosa cells, using MTT instead of MTS for conversion to formazan.

HGL5 cells [7] = test system: HGL5 cells
Source text: Progesterone was corrected for protein concentration. The data represent the mean ±SEM from 2 studies done in triplicate.

NWTb3 cells = assay: Cell viability of NWTb3 cells (MTT to formazan); conditions: NWTb3, 4 days, MTT (FIG. 11)
Procedure: FIG. 11. […] Cells were grown in 24 well-plates with high-glucose MEM 10% FCS. Cell viability was assessed by the conversion of MTT to formazan as previously described. Data are the mean ±SEM from 2 studies done in triplicate.

P450scc = assay: Northern blot of P450scc mRNA in porcine granulosa cells; assay type: cell-based; conditions: 5 μg ml, 24 h (FIG. 5)
Source text: FIG. 5. Scanned image of Northern blot Troglitazone effects on mRNA concentrations of P450scc.
Suppression of transcription of this enzyme would result in decreased progesterone production by granulosa cells.

porcine granulosa cells [8] = assay: Cell viability of porcine granulosa cells (MTS to formazan); assay type: cell-based; conditions: even at the highest doses, 100 μg ml (FIG. 3)
Procedure: FIG. 3. Cell viability porcine granulosa cells during treatment with Troglitazone. Porcine granulosa cells were treated with various concentrations of Troglitazone and cell viability determined using a MTS dye oxidation method. This method is based on the ability of dehydrogenase enzymes found in metabolically active cells to oxidize MTS to formazan. This compound is soluble in tissue culture medium.
Therefore, cell viability was tested in these cells using a colorimetric assay that is dependent on the oxidation of MTS to formazan (absorbance measured at 490 nm ) by dehydrogenase enzymes found in metabolically active cells (Promega, Madison WI). This assay was verified in porcine granulosa cells by showing a linear increase in absorption with increasing cell density.

MCF-7 cells = assay: Cell viability of MCF-7 cells (MTT to formazan); conditions: MCF-7 (non-PPARγ expressing), 4 days, MTT (FIG. 13)
Procedure: FIG. 13. […] MCF-7 cells were treated with increasing concentrations of Troglitazone for 4 days and cell viability was assessed by the conversion of MTT to formazan as previously described. Data are the mean ±SEM from 2 studies done in triplicate.
A non-PPARγ expressing human breast cancer cell line, MCF-7 was tested.

**Q.** With `CCCCC/C=C/C=C1/C(=O)C=C[C@@H]1C/C=C\CCCC(=O)O` [15d-PGJ2, 15-deoxy-delta^12, 14-prostaglandin J2] as the compound, how does the PPARα activation (PPARα) read?
**A.** Its PPARα activation is “activated PPARα only at high concentrations”.

**Q.** And the PPARγ-dependent adipogenesis (PPARγ [1])?
**A.** The PPARγ-dependent adipogenesis was “activates PPARγ-dependent adipogenesis”.

**Q.** What does the source list for `CN(CCOc1ccc(CC2SC(=O)NC2=O)cc1)c1ccccn1` (centres unmarked) [BRL 49653, 5-[4-[2-(N-methyl-N-(2-pyridyl)amino]ethoxy]benzyl]thiazolidine-2,4-dione]?
**A.** suppression of progesterone production, dose-response (porcine granulosa cells [2]): suppressed progesterone production by porcine granulosa cells in a dose-dependent fashion; binding to the PPRE in granulosa cell nuclear extracts (PPARγ [3]): increased binding to the PPRE

**Q.** With `CCc1ccc(CCOc2ccc(CC3SC(=O)NC3=O)cc2)nc1` (centres unmarked) [pioglitazone, 5-[4-[2-(5-ethylpyridin-2-yl)ethoxyl]benzyl]thiazolidine-2,4-dione] as the compound, how does the “suppression of progesterone production, dose-response” value (porcine granulosa cells [2]) read?
**A.** Its value is “suppressed progesterone production by porcine granulosa cells in a dose-dependent fashion”.

**Q.** For `Cc1c(C)c2c(c(C)c1O)CCC(C)(COc1ccc(CC3SC(=O)NC3=O)cc1)O2` (single isomer, unassigned; (+)) [Troglitazone, (+)-5[[4-[(3,4-dihydro-6-hydroxy-2,5,7,8-tetramethyl-2H-1-benzopyran-2-yl)methoxy]phenyl]methyl]-2,4thiazolidinedione], which “women with ovulatory menses” value ([4]; 25 women studied) is on record?
**A.** The value was 2 of the 25.

**Q.** And the insulin resistance [4]?
**A.** Its insulin resistance is “reduced”.

**Q.** What about the “total protein concentrations versus control” value (porcine granulosa cells [5]; Troglitazone treatment groups vs control) of the same compound?
**A.** Its value is “lower”.

**Q.** And the “DNA content versus control” value (porcine granulosa cells [5]; Troglitazone-treated vs control cells)?
**A.** Its value is “not a significant decrease in DNA content”.

**Q.** What about the “concentrations causing a loss of cell viability” value (HGL5 cells [6]) of the same compound?
**A.** Its value is ≥ 0.5 µg·mL.

**Q.** And the “progesterone production at single concentration” value (HGL5 cells [7]; 30 μg ml)?
**A.** Its value is “inhibited progesterone production”.

**Q.** What about the “biphasic response at lower concentrations” value (HGL5 cells [7]; HGL5, 48 h (FIG. 8)) of the same compound?
**A.** Its value is “lower concentrations actually increasing progesterone production”.

**Q.** And the “concentrations at which progesterone production was suppressed” value (HGL5 cells [7]; HGL5, 48 h (FIG. 8))?
**A.** The value was “greater than 10 μg”.

**Q.** What about the “suppression of progesterone at single concentration” value (porcine granulosa cells [2]; 5 μg ml, 24 h (FIG. 7B)) of the same compound?
**A.** Its value is “suppression of progesterone in these cells occurred”.

**Q.** What about the “time at which progesterone production was suppressed” value (porcine granulosa cells [2]; 1 or 10 μg ml, up to 24 h (FIG. 2)) of the same compound?
**A.** The value was ≥ 4 h.

**Q.** And the “effect of concentration on time of onset of suppression” value (porcine granulosa cells [2]; 1 vs 10 μg ml (FIG. 2))?
**A.** Its value is “did not affect the time of onset of suppression”.

**Q.** And the “potency at suppressing progesterone production relative to the other thiazolidinediones” value (porcine granulosa cells [2]; 24 h dose-response (FIG. 1))?
**A.** Its value is “more potent at suppressing progesterone production than 2 other drugs”.

**Q.** What about the “progesterone production in the presence of 25-OH cholesterol” value (porcine granulosa cells [2]; co-treatment with 25-OH cholesterol 30 μg ml, Troglitazone 1 and 10 μg ml, 24 h (FIG. 4)) of the same compound?
**A.** Its value is “suppressed progesterone production”.

**Q.** What about the “suppression of progesterone production, dose-response” value (porcine granulosa cells [2]) of the same compound?
**A.** The value was “suppressed progesterone production by porcine granulosa cells in a dose-dependent fashion”.

**Q.** What about the “concentrations causing a loss of cell viability” value (NWTb3 cells) of the same compound?
**A.** The value was ≥ 1.0 µg/mL.

**Q.** What about the “mRNA concentrations of P450scc” value (P450scc) of the same compound?
**A.** The value was “did not suppress mRNA concentrations of P450scc”.

**Q.** And the cell viability (porcine granulosa cells [8])?
**A.** Its cell viability is “not a decrease in cell viability”.

**Q.** What about the cell viability (MCF-7 cells) of the same compound?
**A.** The cell viability was “decreased only with high concentrations”.
